Target: T1, ΔF508-CFTR (Homo sapiens, UniProt P13569, DEL508-508)
T1 construct: expressed in transfected cells; host or cells: CFSMEo- (human CF submucosal gland epithelial cells, ΔF508/Q2X), transiently transfected by nucleofection
Experiment: ΔF508-CFTR-HRP trafficking assay (cell surface expression of ΔF508-CFTR)
Type: cell-based
Conditions: CFSMEo- cells transiently transfected with ΔF508-CFTR-HRP; test agent 3 μM, 48 h; HRP chemiluminescence
Excerpt: Test agents were screened for their effect on cell surface expression of ΔF508-CFTR using the ΔF508-CFTR-HRP trafficking assay. For this assay, a ΔF508-CFTR expression construct was designed with an in-frame insertion of a horseradish peroxidase (HRP) tag into the 4th extracellular loop of CFTR. The HRP tag would be presented extracellularly, in cells transiently transfected with the ΔF508-CFTR-HRP construct, following correction of the ΔF508-CFTR trafficking defect. The quantity of ΔF508-CFTR-HRP expressed on the plasma membrane could therefore be determined by measuring an HRP-dependent signal after the application of a cell-impermeable HRP substrate.
In brief, CF submucosal gland epithelial cells (CFSMEo-), derived from the airways of a CF patient (ΔF508/Q2X) and provided by Dr. Dieter Gruenert, University of California-San Francisco, were cultured at 37° C. with 5% CO2 in minimum essential medium (MEM) with Earle's salt and nonessential amino acids, supplemented with 10% (volume per volume [v/v]) fetal bovine serum, 2 mM L-glutamine and 1× (v/v) penicillin/streptomycin and grown in tissue culture-treated flasks coated with an extracellular matrix (ECM) cocktail consisting of 10 μg/mL human fibronectin, 30 μg/mL bovine collagen type I, and 100 μg/mL bovine serum albumin in LHC basal medium. These CFSMEo^− cells were transiently transfected with 4 μg of the ΔF508-CFTR-HRP expression construct using the Lonza 4D-Nucleofector Core unit (Lonza, Catalogue No. AAF-1002B) with the X unit (Lonza, Catalogue No. AAF-1002X) and SF Cell Line 4D-Nucleofector X Kit L (Lonza, Catalogue No. V4XC-2024) according to the manufacturer's instructions and plated at 1.2×10^4 cells/well onto collagen-coated, 96-well plates (Corning Inc.). Twenty-four h post-transfection, cells were treated with test agents, solubilized in DMSO at a concentration of 3 μM in replicates of 3, and allowed to incubate for 48 h. To detect HRP expression, cell culture media was removed, cells were washed with PBS and 100 μL of Luminata Forte HRP chemiluminescent substrate (EMD Millipore, Burlington, MA) was added to each well. Following a 5-minute incubation, chemiluminescence was measured in relative luminescent units (RLUs) using an EnVision plate reader (Perkin Elmer, Waltham, MA).
The ΔF508-CFTR-HRP trafficking data was normalized to the vehicle treated control (0.3% DMSO), followed by calculation of the mean, standard deviation, and standard error. If the test agent increased cell surface expression of ΔF508-CFTR-HRP relative to the vehicle-treated control, then that test agent was considered a ΔF508-CFTR corrector. Based on the description above, the biological activity of the examples in this disclosure is collected in Table 2.

T1 sequence (P13569 with tags, fused parts or gaps DEL508-508): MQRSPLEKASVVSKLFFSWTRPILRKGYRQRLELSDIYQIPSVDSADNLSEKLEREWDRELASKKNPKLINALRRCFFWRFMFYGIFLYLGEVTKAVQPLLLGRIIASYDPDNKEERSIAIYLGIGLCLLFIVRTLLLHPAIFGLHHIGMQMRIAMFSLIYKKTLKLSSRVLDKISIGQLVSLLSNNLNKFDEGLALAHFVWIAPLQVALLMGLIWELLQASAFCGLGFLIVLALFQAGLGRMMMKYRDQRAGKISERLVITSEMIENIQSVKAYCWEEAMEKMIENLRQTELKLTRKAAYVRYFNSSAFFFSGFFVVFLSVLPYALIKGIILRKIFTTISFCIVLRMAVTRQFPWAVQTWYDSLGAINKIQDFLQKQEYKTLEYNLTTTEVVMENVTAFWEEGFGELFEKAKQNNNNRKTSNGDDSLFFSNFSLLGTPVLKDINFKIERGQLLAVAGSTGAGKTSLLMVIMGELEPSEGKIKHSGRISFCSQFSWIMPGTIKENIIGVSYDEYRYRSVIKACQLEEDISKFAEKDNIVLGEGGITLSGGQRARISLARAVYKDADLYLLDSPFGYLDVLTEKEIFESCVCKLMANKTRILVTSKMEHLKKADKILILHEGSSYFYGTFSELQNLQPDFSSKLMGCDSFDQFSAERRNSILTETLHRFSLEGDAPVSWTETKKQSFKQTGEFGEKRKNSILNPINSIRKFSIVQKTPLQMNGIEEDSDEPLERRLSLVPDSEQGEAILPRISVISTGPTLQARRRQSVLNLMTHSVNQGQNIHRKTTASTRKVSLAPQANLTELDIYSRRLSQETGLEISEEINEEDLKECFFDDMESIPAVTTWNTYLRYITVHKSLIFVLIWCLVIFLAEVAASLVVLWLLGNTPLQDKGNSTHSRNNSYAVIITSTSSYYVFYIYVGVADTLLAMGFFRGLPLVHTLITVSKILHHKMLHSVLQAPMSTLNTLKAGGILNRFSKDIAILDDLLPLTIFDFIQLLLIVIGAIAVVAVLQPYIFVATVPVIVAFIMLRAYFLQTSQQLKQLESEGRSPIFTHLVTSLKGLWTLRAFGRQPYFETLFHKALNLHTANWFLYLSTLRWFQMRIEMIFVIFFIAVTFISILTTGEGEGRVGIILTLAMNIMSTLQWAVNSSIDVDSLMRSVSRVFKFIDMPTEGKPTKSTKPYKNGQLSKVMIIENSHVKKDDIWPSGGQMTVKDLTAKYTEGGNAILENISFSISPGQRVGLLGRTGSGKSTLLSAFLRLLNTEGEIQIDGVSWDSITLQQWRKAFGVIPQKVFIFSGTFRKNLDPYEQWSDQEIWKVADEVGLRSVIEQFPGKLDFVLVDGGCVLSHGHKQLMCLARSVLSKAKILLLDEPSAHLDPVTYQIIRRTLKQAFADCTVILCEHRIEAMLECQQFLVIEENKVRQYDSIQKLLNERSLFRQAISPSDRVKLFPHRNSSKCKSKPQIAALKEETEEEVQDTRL

| SMILES | RLUs: ΔF508-CFTR-HRP trafficking data normalized to the vehicle treated control (0.3% DMSO) |
| --- | --- |
| C[C@H](Nc1cccc(-n2nc(C(F)(F)F)c3c2[C@@H](OC24CC(C(=O)O)(C2)C4)CCC3)n1)c1ccc2c(c1)OC(F)(F)O2 (single isomer, unassigned) [100 (P1)] | A (RLU 5.0 μM-10 μM) |
| C[C@H](Nc1cccc(-n2nc(C(F)(F)F)c3c2[C@H](OC24CC(C(=O)O)(C2)C4)CCC3)n1)c1ccc2c(c1)OC(F)(F)O2 (single isomer, unassigned) [100 (P2)] | C (RLU 0.0 μM-3.5 μM) |
| C[C@H](Nc1nc(-n2nc(C(F)(F)F)c3c2[C@@H](OC24CC(C(=O)O)(C2)C4)CCC3)ccc1F)c1ccc2c(c1)OC(F)(F)O2 (single isomer, unassigned) [101 (P1)] | C (RLU 0.0 μM-3.5 μM) |
| C[C@H](Nc1nc(-n2nc(C(F)(F)F)c3c2[C@H](OC24CC(C(=O)O)(C2)C4)CCC3)ccc1F)c1ccc2c(c1)OC(F)(F)O2 (single isomer, unassigned) [101 (P2)] | C (RLU 0.0 μM-3.5 μM) |
| C[C@H](Nc1cc(-n2nc(C(F)(F)F)c3c2[C@@H](OC24CC(c5nc(=O)o[nH]5)(C2)C4)CCC3)ccc1F)c1ccc2c(c1)OC(F)(F)O2 (single isomer, unassigned) [102 (P1)] | C (RLU 0.0 μM-3.5 μM) |
| C[C@H](Nc1cc(-n2nc(C(F)(F)F)c3c2[C@H](OC24CC(c5nc(=O)o[nH]5)(C2)C4)CCC3)ccc1F)c1ccc2c(c1)OC(F)(F)O2 (single isomer, unassigned) [102 (P2)] | B (RLU 3.5 μM-5.0 μM) |
| C[C@H](Oc1cc(-n2nc(C#N)c3c2[C@@H](OC24CC(C(=O)O)(C2)C4)CCC3)ccc1F)c1ccc2c(c1)OC(F)(F)O2 (single isomer, unassigned) [105 (P1)] | B (RLU 3.5 μM-5.0 μM) |
| C[C@H](Oc1cc(-n2nc(C#N)c3c2[C@H](OC24CC(C(=O)O)(C2)C4)CCC3)ccc1F)c1ccc2c(c1)OC(F)(F)O2 (single isomer, unassigned) [105 (P2)] | B (RLU 3.5 μM-5.0 μM) |
| C[C@H](Nc1cc(-n2nc(C#N)c3c2[C@@H](OC24CC(C(=O)O)(C2)C4)CCC3)ccc1F)c1ccc2c(c1)OC(F)(F)O2 (single isomer, unassigned) [106 (P1)] | B (RLU 3.5 μM-5.0 μM) |
| C[C@H](Nc1cc(-n2nc(C#N)c3c2[C@H](OC24CC(C(=O)O)(C2)C4)CCC3)ccc1F)c1ccc2c(c1)OC(F)(F)O2 (single isomer, unassigned) [106 (P2)] | C (RLU 0.0 μM-3.5 μM) |
| C[C@H](Nc1cc(-n2nc(C#N)c3c2[C@@H](OC24CC(C(=O)O)(C2)C4)CCC3)ncc1F)c1ccc2c(c1)OC(F)(F)O2 (single isomer, unassigned) [107 (P1)] | C (RLU 0.0 μM-3.5 μM) |
| C[C@H](Nc1cc(-n2nc(C#N)c3c2[C@H](OC24CC(C(=O)O)(C2)C4)CCC3)ncc1F)c1ccc2c(c1)OC(F)(F)O2 (single isomer, unassigned) [107 (P2)] | C (RLU 0.0 μM-3.5 μM) |
| C[C@H](Nc1nc(-n2nc(C#N)c3c2[C@@H](OC24CC(C(=O)O)(C2)C4)CCC3)ccc1F)c1ccc2c(c1)OC(F)(F)O2 (single isomer, unassigned) [108 (P1)] | C (RLU 0.0 μM-3.5 μM) |
| C[C@H](Nc1nc(-n2nc(C#N)c3c2[C@H](OC24CC(C(=O)O)(C2)C4)CCC3)ccc1F)c1ccc2c(c1)OC(F)(F)O2 (single isomer, unassigned) [108 (P2)] | C (RLU 0.0 μM-3.5 μM) |
| C[C@H](Oc1cc(-n2nc(C(F)(F)F)c3c2[C@@H](Oc2ccc(C(=O)O)cc2)CN(C)C3)ccn1)c1ccc2c(c1)OC(F)(F)O2 (single isomer, unassigned) [115 (P1)] | B (RLU 3.5 μM-5.0 μM) |
| C[C@H](Oc1cc(-n2nc(C(F)(F)F)c3c2[C@H](Oc2ccc(C(=O)O)cc2)CN(C)C3)ccn1)c1ccc2c(c1)OC(F)(F)O2 (single isomer, unassigned) [115 (P2)] | C (RLU 0.0 μM-3.5 μM) |
| C[C@H](Oc1cccc(-n2nc(C(F)(F)F)c3c2[C@@H](C(=O)N2CCC(C(=O)O)CC2)CCC3)c1)c1ccc2c(c1)OC(F)(F)O2 (single isomer, unassigned) [120 (P1)] | B (RLU 3.5 μM-5.0 μM) |
| C[C@H](Oc1cccc(-n2nc(C(F)(F)F)c3c2[C@H](C(=O)N2CCC(C(=O)O)CC2)CCC3)c1)c1ccc2c(c1)OC(F)(F)O2 (single isomer, unassigned) [120 (P2)] | C (RLU 0.0 μM-3.5 μM) |
| C[C@H](Oc1cncc(-n2nc(C(F)(F)F)c3c2[C@@H](C(=O)N2CCC(C(=O)O)CC2)CCC3)c1)c1ccc2c(c1)OC(F)(F)O2 (single isomer, unassigned) [122 (P1)] | C (RLU 0.0 μM-3.5 μM) |
| C[C@H](Oc1cncc(-n2nc(C(F)(F)F)c3c2[C@H](C(=O)N2CCC(C(=O)O)CC2)CCC3)c1)c1ccc2c(c1)OC(F)(F)O2 (single isomer, unassigned) [122 (P2)] | B (RLU 3.5 μM-5.0 μM) |
| C[C@H](Oc1cncc(-n2nc(C(F)(F)F)c3c2[C@@H](CN2CCC(C(=O)O)CC2)CCC3)c1)c1ccc2c(c1)OC(F)(F)O2 (single isomer, unassigned) [124 (P1)] | B (RLU 3.5 μM-5.0 μM) |

Second part, the molecule after the results:

| RLUs: ΔF508-CFTR-HRP trafficking data normalized to the vehicle treated control (0.3% DMSO) | SMILES |
| --- | --- |
| C (RLU 0.0 μM-3.5 μM) | C[C@H](Nc1cc(-n2nc(C(F)(F)F)c3c2[C@H](OC24CC(C(=O)O)(C2)C4)CCC3)ccc1F)c1cc2c(cc1F)OC(F)(F)O2 (single isomer, unassigned) [96 (P2)] |
| C (RLU 0.0 μM-3.5 μM) | C[C@H](Nc1cccc(-n2nc(C(F)(F)F)c3c2[C@@H](OC24CC(C(=O)O)(C2)C4)CCC3)c1)c1cc2c(cc1F)OC(F)(F)O2 (single isomer, unassigned) [97 (P1)] |
| C (RLU 0.0 μM-3.5 μM) | C[C@H](Nc1cccc(-n2nc(C(F)(F)F)c3c2[C@H](OC24CC(C(=O)O)(C2)C4)CCC3)c1)c1cc2c(cc1F)OC(F)(F)O2 (single isomer, unassigned) [97 (P2)] |
| C (RLU 0.0 μM-3.5 μM) | C[C@H](Nc1ccc(F)c(-n2nc(C(F)(F)F)c3c2[C@@H](OC24CC(C(=O)O)(C2)C4)CCC3)c1)c1cc2c(cc1F)OC(F)(F)O2 (single isomer, unassigned) [98 (P1)] |
| C (RLU 0.0 μM-3.5 μM) | C[C@H](Nc1ccc(F)c(-n2nc(C(F)(F)F)c3c2[C@H](OC24CC(C(=O)O)(C2)C4)CCC3)c1)c1cc2c(cc1F)OC(F)(F)O2 (single isomer, unassigned) [98 (P2)] |
| C (RLU 0.0 μM-3.5 μM) | C[C@H](Nc1ccc(F)c(-n2nc(C(F)(F)F)c3c2[C@@H](OC24CC(C(=O)O)(C2)C4)CCC3)c1)c1ccc2c(c1)OC(F)(F)O2 (single isomer, unassigned) [99 (P1)] |
| C (RLU 0.0 μM-3.5 μM) | C[C@H](Nc1ccc(F)c(-n2nc(C(F)(F)F)c3c2[C@H](OC24CC(C(=O)O)(C2)C4)CCC3)c1)c1ccc2c(c1)OC(F)(F)O2 (single isomer, unassigned) [99 (P2)] |
| B (RLU 3.5 μM-5.0 μM) | C[C@H](Nc1cc(-n2nc(C(F)(F)F)c3c2[C@@H](OC24CC(c5nc(=O)o[nH]5)(C2)C4)CCC3)ccc1F)c1cc2c(cc1F)OC(F)(F)O2 (single isomer, unassigned) [103 (P1)] |
| C (RLU 0.0 μM-3.5 μM) | C[C@H](Nc1cc(-n2nc(C(F)(F)F)c3c2[C@H](OC24CC(c5nc(=O)o[nH]5)(C2)C4)CCC3)ccc1F)c1cc2c(cc1F)OC(F)(F)O2 (single isomer, unassigned) [103 (P2)] |
